Test results published in patent publication US8222268B2, “Methods for reducing vein irritation” (Adventrx Pharmaceuticals, Inc., priority 2004, dated 2012).
Where a name gives a salt, the structure may show the parent alone.

How the values were obtained:
[1] = in distilled water; bitartrate salt form; cited from earlier work
[2] = Dialysis test of vinorelbine incorporation into the oil phase of an emulsion; details: for effect of stabilizer on vinorelbine incorporation into the oil phase (vinorelbine concentration in PBS): dialysis against PBS pH 7.4, emulsion with […] (w/w) vinorelbine bitartrate, FIG. 1
Method: The concentration of each stabilizer added into formulation is: 1.57% (w/w) for sodium oleate, 2.73% (w/w) for vitamin E succinate, 2.46% (w/w) for riboflavin-5-phosphate sodium and 2.52% (w/w) for cholesterol sulfate. A formulation without any stabilizer (“control”) and a formulation with extra Phospholipon 90G were also evaluated in the study.
The drug incorporation into the oil phase was tested using a dialysis method developed specifically for this purpose. This method involved filling 500 mg of an emulsion into a Slide-A-Lyzer dialysis cassette with 10,000 MW cutoffs, placing the cassette in 70 mL phosphate buffered saline (PBS), pH 7.4 and shaking the solution on a platform shaker at 100 RPM.

Row | Compound | effect of stabilizer on vinorelbine incorporation into the oil phase (vinorelbine concentration in PBS) [2] | also measured
1 | CCC1=C[C@@H]2CN(C1)Cc1c([nH]c3ccccc13)[C@@](C(=O)OC)(c1cc3c(cc1OC)N(C)[C@H]1[C@@](O)(C(=O)OC)[C@H](OC(C)=O)[C@]4(CC)C=CCN5CC[C@]31[C@@H]54)C2 (relative stereo) [vinorelbine bitartrate, 3′,4′-didehydro-4′-deoxy-C′-norvincaleukoblastine [R-(R*,R*)-2,3-dihydroxybutanedioate (1:2) (salt)]] | – | aqueous solubility [1]: > 1000 mg/mL
2 | Cc1c(C)c2c(c(C)c1OC(=O)CCC(=O)O)CC[C@@](C)(CCC[C@H](C)CCC[C@H](C)CCCC(C)C)O2 [Vitamin E succinate, vitamin E succinate] | most effective stabilizers | –
3 | Cc1cc2nc3c(=O)[nH]c(=O)nc-3n(C[C@H](O)[C@H](O)[C@H](O)COP(=O)([O-])O)c2cc1C.[Na+] [riboflavin-5-phosphate, riboflavin-5-phosphate sodium] | most effective stabilizers | –
4 | CCCCCCCC/C=C\CCCCCCCC(=O)[O-].[Na+] [sodium oleate] | most effective stabilizers | partition of vinorelbine into the aqueous phase ([2]; vinorelbine-to-oleate molar ratio of 1:4 (charge ratio of 1:1), dialysis, 28 hours, FIG. 2): almost completely stopped the partition of vinorelbine into the aqueous phase
5 | CCC1=C[C@@H]2CN(C1)Cc1c([nH]c3ccccc13)[C@@](C(=O)OC)(c1cc3c(cc1OC)N(C)[C@H]1[C@@](O)(C(=O)OC)[C@H](OC(C)=O)[C@]4(CC)C=CCN5CC[C@]31[C@@H]54)C2 [vinorelbine, reference compound] | – | incorporation of vinorelbine in the oil phase ([2]; emulsion without a stabilizer): present primarily in the aqueous phase
